These results are taken from ChEMBL document CHEMBL2202984, “16-morpholino quaternary ammonium steroidal derivatives as neuromuscular blocking agents: synthesis, biological evaluation and in silico probe of ligand-receptor interaction” (Eur J Med Chem, 2012).

Activity calls are given as the source filed them. No cut-off for these calls is given here.

Assay [1] is described as follows: (§1) Inhibition of nAChR-mediated twitch response in mouse hemidiaphragm.
Assay [2] is filed under the species Mus musculus. Described as §1.
The species entered for assay [3] is Mus musculus. The experiment in a line: Inhibition of nAChR-mediated twitch response in mouse hemidiaphragm at IC90 in presence of neostigmine bromide.

In assay [1], `CC(=O)O[C@H]1[C@@H]([N+]2(C)CCOCC2)C[C@H]2[C@@H]3CC[C@H]4C[C@H](N5CC[N+](C)(C)CC5)CC[C@]4(C)[C@H]3CC[C@@]21C` yielded an IC50 of 39.1 µM.
In turn, `CC(=O)O[C@H]1[C@@H]([N+]2(C)CCOCC2)C[C@H]2[C@@H]3CC[C@H]4C[C@@H]([N+](C)(C)c5ccccc5)CC[C@]4(C)[C@H]3CC[C@@]21C` had an IC50 in assay [1] of 12.7 µM. In assay [2], the IC90 turned out to be 18.2 µM.
Turning to `C[C@]12CC[C@H]([N+]3(C)CCCC3)C[C@@H]1CC[C@@H]1[C@@H]2CC[C@]2(C)[C@@H](O)[C@@H]([N+]3(C)CCOCC3)C[C@@H]12`, the IC50 in assay [1] is 27.6 µM.
Same read-out and setting: to `C[C@]12CC[C@H]([N+](C)(C)c3ccccc3)C[C@@H]1CC[C@@H]1[C@@H]2CC[C@]2(C)[C@@H](O)[C@@H]([N+]3(C)CCOCC3)C[C@@H]12` belongs 16.2 µM.
Regarding `C[C@]12CC[C@H]([N+]3(C)CCCCC3)C[C@@H]1CC[C@@H]1[C@@H]2CC[C@]2(C)[C@@H](O)[C@@H]([N+]3(C)CCOCC3)C[C@@H]12`, half-maximal inhibition in assay [1] (IC50) was put at 13.6 µM.
Molecule `CC(=O)O[C@H]1[C@@H]([N+]2(C)CCOCC2)C[C@H]2[C@@H]3CC[C@H]4C[C@H]([N+]5(C)CCCC5)CC[C@]4(C)[C@H]3CC[C@@]21C` yielded an IC50 in assay [1] of 18.6 µM.
The molecule `C=CC[N+]1([C@H]2C[C@H]3[C@@H]4CC[C@H]5C[C@H](O)[C@@H](N6CCOCC6)C[C@]5(C)[C@H]4CC[C@]3(C)[C@H]2OC(C)=O)CCCC1` [ROCURONIUM BROMIDE] returned an IC50 in assay [1] of 2.5 µM. The 90% effect level in assay [2] (IC90) was put at 3.53 µM.
On to `C[C@]12CC[C@H]([N+](C)(C)C)C[C@@H]1CC[C@@H]1[C@@H]2CC[C@]2(C)[C@@H](O)[C@@H]([N+]3(C)CCOCC3)C[C@@H]12`, for which the IC50 in assay [1] stood at 21.4 µM.
In assay [1], `CC(=O)O[C@H]1[C@@H]([N+]2(C)CCOCC2)C[C@H]2[C@@H]3CC[C@H]4C[C@H]([N+](C)(C)C)CC[C@]4(C)[C@H]3CC[C@@]21C` came in with a half-inhibitory concentration (IC50) of 17.4 µM.
The same measure, in the same setting: to `C[C@]12CC[C@H](N3CC[N+](C)(C)CC3)C[C@@H]1CC[C@@H]1[C@@H]2CC[C@]2(C)[C@@H](O)[C@@H]([N+]3(C)CCOCC3)C[C@@H]12` belongs 24.5 µM.
In assay [1], `CC(=O)O[C@H]1[C@@H]([N+]2(C)CCOCC2)C[C@H]2[C@@H]3CC[C@H]4C[C@@H]([N+]5(C)CCOCC5)CC[C@]4(C)[C@H]3CC[C@@]21C` came in with an IC50 of 33.9 µM. The molecule also registered a 90% effect concentration (IC90) in assay [2] of 50.7 µM.
Turning to `CC(=O)O[C@H]1[C@@H]([N+]2(C)CCOCC2)C[C@H]2[C@@H]3CC[C@H]4C[C@@H]([N+]5(C)CCCCC5)CC[C@]4(C)[C@H]3CC[C@@]21C`, the half-inhibitory concentration (IC50) in assay [1] was determined as 3.49 µM. It took 5.46 µM to reach the 90% level in assay [2] (IC90). In addition, the inhibition entry in assay [3] is “inactive”.
On to `C[C@]12CC[C@H]([N+](C)(C)Cc3ccccc3)C[C@@H]1CC[C@@H]1[C@@H]2CC[C@]2(C)[C@@H](O)[C@@H]([N+]3(C)CCOCC3)C[C@@H]12`, for which the midpoint of inhibition in assay [1], the IC50, lay at 18.5 µM.
With `CC(=O)O[C@H]1[C@@H]([N+]2(C)CCOCC2)C[C@H]2[C@@H]3CC[C@H]4C[C@@H]([N+]5(C)CCCC5)CC[C@]4(C)[C@H]3CC[C@@]21C`, 10.7 µM corresponded to half-maximal inhibition in assay [1] (IC50). The 90% effect concentration (IC90) in assay [2] came out at 15.7 µM.
As for `CC(=O)O[C@H]1[C@@H]([N+]2(C)CCOCC2)C[C@H]2[C@@H]3CC[C@H]4C[C@@H]([N+](C)(C)Cc5ccccc5)CC[C@]4(C)[C@H]3CC[C@@]21C`, half-maximal inhibition in assay [1] (IC50) was put at 4.54 µM. The molecule also registered an IC90 in assay [2] of 6.38 µM. The inhibition result in assay [3] is “inactive”.
As for `CC(=O)O[C@H]1CC[C@@]2(C)[C@@H](CC[C@@H]3[C@@H]2CC[C@@]2(C)[C@H]3C[C@H]([N+]3(C)CCOCC3)[C@@H]2OC(C)=O)C1`, half-maximal inhibition in assay [1] (IC50) was put at 19.8 µM. The IC90 in assay [2] worked out at 29.4 µM.
Turning to `CC(=O)O[C@H]1[C@@H]([N+]2(C)CCOCC2)C[C@H]2[C@@H]3CC[C@H]4C[C@@H](N5CC[N+](C)(C)CC5)CC[C@]4(C)[C@H]3CC[C@@]21C`, inhibition in assay [1] was half-maximal at 13.1 µM (IC50). It took 18.6 µM to reach the 90% level in assay [2] (IC90).
For `CC(=O)O[C@H]1C[C@@H]2CC[C@@H]3[C@H](CC[C@@]4(C)[C@H]3C[C@H]([N+]3(C)CCCCC3)[C@@H]4OC(C)=O)[C@@]2(C)C[C@@H]1N1CCCCC1` [VECURONIUM BROMIDE], in that order: 0.31 µM and 0.44 µM.
In the case of `C[C@]12CC[C@H]([N+]3(C)CCOCC3)C[C@@H]1CC[C@@H]1[C@@H]2CC[C@]2(C)[C@@H](O)[C@@H]([N+]3(C)CCOCC3)C[C@@H]12`, the IC50 in assay [1] was 38.9 µM.
As to `CC(=O)O[C@H]1[C@@H]([N+]2(C)CCOCC2)C[C@H]2[C@@H]3CC[C@H]4C[C@@H]([N+](C)(C)C)CC[C@]4(C)[C@H]3CC[C@@]21C`, in assay [1], the IC50 was found to be 16.6 µM. The IC90 in assay [2] turned out to be 25 µM.

Usually IC50 stands for the midpoint of a concentration-inhibition curve. A higher IC50 goes with a need for much substance. By IC90 is commonly meant the concentration needed for an effect of 90%.
